In patent US9511080B2, “Okadaella gastrococcus and cancer” (Okada Medical Services Pty Ltd, priority 2009, dated 2016):

Assays:
[1] = system: Okadaella gastrococcus (Og) isolates; test: In vitro antibiotic sensitivity of Og (E-tests and diffusion disc tests); assay type: cell-based; conditions: for Og can be treated using antibiotic (in vitro assays): 25 Og isolates from gastric mucosal biopsy specimens
Description: Twenty-five Og isolates were obtained from gastric mucosal biopsy specimens. E-tests and diffusion disc tests were performed under microaerophilic condition (Oxygen 5%, CO2 10%, and Nitrogen 85%) utilizing. 5% horse blood agar, except metronidazole which was tested under anaerobic condition. Antibiotic sensitivity was read 72 hours after incubation. Randomly selected isolates were also examined under TEM to confirm the ultrastructure of Og. Results: Og was sensitive to various antibiotics, in particular to the penicillins, the cephalosporins, the quinolones, and chloramphenicol.

[2] = system: intestinal metaplasia of the gastric mucosa; conditions: co-administered with Hp eradication therapy (Walker, 2003); cited from earlier work

Structure (SMILES)	Og can be treated using antibiotic (in vitro assays) [1]	Effect on intestinal metaplasia of the gastric mucosa [2]	Antibiotic sensitivity of Og ([1]; E-tests and diffusion disc tests, microaerophilic, 5% horse blood agar, read 72 hours after incubation)
CC1(C)S[C@@H]2[C@H](NC(=O)[C@H](N)c3ccccc3)C(=O)N2[C@H]1C(=O)O [ampicillin]	can be treated	–	–
O=C1O[C@H]([C@@H](O)CO)C(O)=C1O [ascorbic acid]	–	significantly resolved the intestinal metaplasia	–
CO/N=C(\C(=O)N[C@@H]1C(=O)N2C(C(=O)O)=C(COC(C)=O)CS[C@H]12)c1csc(N)n1 [cefotaxime]	can be treated	–	–
O=C(N[C@H](CO)[C@H](O)c1ccc([N+](=O)[O-])cc1)C(Cl)Cl [chloramphenicol]	can be treated	–	sensitive
O=C(O)c1cn(C2CC2)c2cc(N3CCNCC3)c(F)cc2c1=O [ciprofloxacin]	can be treated	–	–
COc1c(N2CCNC(C)C2)c(F)cc2c(=O)c(C(=O)O)cn(C3CC3)c12 (stereo not shown) [gatifloxacin]	can be treated	–	–
